Source: US20100267561A1, “HERBICIDAL PYRIDAZINONE DERIVATIVES” (priority 2007, published 2010)
Where two headings read alike, the source gives them in different places.

What was measured:
Test in all cases: Test B pre-/postemergence plant response
Assay type in all cases: in vivo
[1] = system: yellow nutsedge (Cyperus esculentus); details: Preemergence
Method in brief: (§1)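 Visual scoring from 0 (no effect) to 100 (complete control) against untreated controls was done 13 to 15 days after greenhouse treatment. Chemicals were formulated in a surfactant-containing non-phytotoxic solvent and applied to soil preemergence or to 1- to 4-leaf (2-18 cm) plants postemergence.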

[2] = system: Italian ryegrass (Lolium multiflorum); details: for Ryegrass, Italian plant response rating: 8 g ai/ha; for pest or weed control at 16 g/ha / pest or weed control at 31 g/ha / pest or weed control at 62 g/ha: Lolium multiflorum, read-out: Plant response rating, Ryegrass, Italian; for pest or weed control at 16 g/ha: 16 g ai/ha; for pest or weed control at 31 g/ha: 31 g ai/ha; for pest or weed control at 62 g/ha: 62 g ai/ha
Method in brief: as §1

[3] = system: common ragweed (Ambrosia elation); details: for Ragweed plant response rating: 8 g ai/ha; for pest or weed control at 16 g/ha / pest or weed control at 31 g/ha / pest or weed control at 62 g/ha: Ambrosia, read-out: Plant response rating, Ragweed; for pest or weed control at 16 g/ha: 16 g ai/ha; for pest or weed control at 31 g/ha: 31 g ai/ha; for pest or weed control at 62 g/ha: 62 g ai/ha
Method in brief: as §1

[4] = system: kochia (Kochia scoparia); details: for Kochia plant response rating: 8 g ai/ha; for Plant response rating, Kochia: Postemergence
Method in brief: as §1

[5] = system: green foxtail (Setaria viridis); details: for Foxtail, Green plant response rating: 8 g ai/ha; for pest or weed control at 16 g/ha / pest or weed control at 31 g/ha / pest or weed control at 62 g/ha: Setaria viridis, read-out: Plant response rating, Foxtail, Green; for pest or weed control at 16 g/ha: 16 g ai/ha; for pest or weed control at 31 g/ha: 31 g ai/ha; for pest or weed control at 62 g/ha: 62 g ai/ha
Method in brief: as §1

[6] = system: cocklebur (Xanthium strumarium); details: for Cocklebur plant response rating: 8 g ai/ha; for pest or weed control at 16 g/ha / pest or weed control at 31 g/ha / pest or weed control at 62 g/ha: Xanthium strumarium, read-out: Plant response rating, Cocklebur; for pest or weed control at 16 g/ha: 16 g ai/ha; for pest or weed control at 31 g/ha: 31 g ai/ha; for pest or weed control at 62 g/ha: 62 g ai/ha
Method in brief: as §1

[7] = system: corn (Zea mays); details: for Corn plant response rating: 8 g ai/ha; for Corn plant response rating (crop injury, 0 = no effect, 100 = complete kill) at 16 g/ha / Corn plant response rating (crop injury, 0 = no effect, 100 = complete kill) at 31 g/ha / Corn plant response rating (crop injury, 0 = no effect, 100 = complete kill) at 62 g/ha: Zea mays; for Corn plant response rating (crop injury, 0 = no effect, 100 = complete kill) at 16 g/ha: 16 g ai/ha; for Corn plant response rating (crop injury, 0 = no effect, 100 = complete kill) at 31 g/ha: 31 g ai/ha; for Corn plant response rating (crop injury, 0 = no effect, 100 = complete kill) at 62 g/ha: 62 g ai/ha
Method in brief: as §1

[8] = post-emergence, Postemergence, scale 0 to 100
[9] = post-emergence, Postemergence, scale 0 to 100, 0 no effect, 100 complete control
[10] = pre-emergence, Preemergence, scale 0 to 100 (0 no effect, 100 complete control)
[11] = pre-emergence, Preemergence, 0 to 100 scale, 0 no effect, 100 complete control
[12] = pre-emergence, Preemergence, scale 0 to 100

Structure (SMILES): CCc1c(C)c(-c2ccc(Cl)cc2)nn1-c1c(O)cnn(C)c1=O [Compound 26, 4-[3-(4-chlorophenyl)-5-ethyl-4-methyl-1H-pyrazol-1-yl]-5-hydroxy-2-methyl-3(2H)-pyridazinone]
- pest or weed control at 31 g/ha ([1]; Cyperus, pre-emergence, 31 g ai/ha, 0 to 100 scale, 0 no effect, 100 complete control, read-out: Plant response rating, Nutsedge, Yellow): 0%
- pest or weed control at 62 g/ha ([1]; Cyperus, pre-emergence, 62 g ai/ha, scale 0 to 100, read-out: Plant response rating, Nutsedge, Yellow): 0%
- Nutsedge, Yellow plant response rating ([1]; 8 g ai/ha, scale 0 to 100): 0
- Ryegrass, Italian plant response rating ([2]; postemergence, 0-100 scale): 70
- pest or weed control at 16 g/ha [2, 8]: 85%
- pest or weed control at 31 g/ha [2, 9]: 85%
- pest or weed control at 62 g/ha [2, 9]: 100%
- pest or weed control at 16 g/ha [2, 10]: 90%
- pest or weed control at 31 g/ha [2, 11]: 100%
- pest or weed control at 62 g/ha [2, 12]: 100%
- Ryegrass, Italian plant response rating ([2]; Preemergence, scale 0 to 100): 50
- Ragweed plant response rating ([3]; postemergence, 0-100 scale): 0
- pest or weed control at 16 g/ha [3, 8]: 0%
- pest or weed control at 31 g/ha [3, 9]: 0%
- pest or weed control at 62 g/ha [3, 9]: 0%
- pest or weed control at 16 g/ha [3, 10]: 0%
- pest or weed control at 31 g/ha [3, 11]: 0%
- pest or weed control at 62 g/ha [3, 12]: 0%
- Ragweed plant response rating ([3]; Preemergence, scale 0 to 100): 0
- Kochia plant response rating ([4]; postemergence, 0-100 scale): 0
- Plant response rating, Kochia ([4]; 16 g ai/ha, scale 0 to 100): 0
- Plant response rating, Kochia ([4]; 31 g ai/ha, scale 0 to 100, 0 no effect, 100 complete control): 0
- Plant response rating, Kochia ([4]; 62 g ai/ha, scale 0 to 100, 0 no effect, 100 complete control): 0
- Kochia plant response rating ([4]; Preemergence, scale 0 to 100): 0
- Foxtail, Green plant response rating ([5]; postemergence, 0-100 scale): 60
- Foxtail, Green plant response rating ([5]; Preemergence, scale 0 to 100): 98
- pest or weed control at 16 g/ha [5, 8]: 80%
- pest or weed control at 31 g/ha [5, 9]: 80%
- pest or weed control at 62 g/ha [5, 9]: 98%
- pest or weed control at 16 g/ha [5, 10]: 100%
- pest or weed control at 31 g/ha [5, 11]: 100%
- pest or weed control at 62 g/ha [5, 12]: 100%
- Cocklebur plant response rating ([6]; postemergence, 0-100 scale): 0
- Cocklebur plant response rating ([6]; Preemergence, scale 0 to 100): 0
- pest or weed control at 16 g/ha [6, 8]: 0%
- pest or weed control at 31 g/ha [6, 9]: 0%
- pest or weed control at 62 g/ha [6, 9]: 0%
- pest or weed control at 16 g/ha [6, 10]: 0%
- pest or weed control at 31 g/ha [6, 11]: 0%
- pest or weed control at 62 g/ha [6, 12]: 10%
- Corn plant response rating ([7]; postemergence, 0-100 scale): 0
- Corn plant response rating ([7]; Preemergence, scale 0 to 100): 15
- Corn plant response rating (crop injury, 0 = no effect, 100 = complete kill) at 16 g/ha [7, 8]: 0%
- Corn plant response rating (crop injury, 0 = no effect, 100 = complete kill) at 31 g/ha [7, 9]: 100%
- Corn plant response rating (crop injury, 0 = no effect, 100 = complete kill) at 62 g/ha [7, 9]: 100%
- Corn plant response rating (crop injury, 0 = no effect, 100 = complete kill) at 16 g/ha [7, 10]: 30%
- Corn plant response rating (crop injury, 0 = no effect, 100 = complete kill) at 31 g/ha [7, 11]: 70%
- Corn plant response rating (crop injury, 0 = no effect, 100 = complete kill) at 62 g/ha [7, 12]: 98%
